Test results: US20220096516A1, “OLIGONUCLEOTIDE MOLECULE AND APPLICATION THEREOF IN TUMOR THERAPY” (Ractigen Therapeutics, priority 2019, published 2022)
d = 2'-deoxy (DNA); r = 2'-OH (RNA)

Test system: LHPP gene
Experiment: High-throughput screening of saRNAs targeting LHPP promoter: LHPP mRNA by one-step RT-qPCR in Huh7 cells
Format: cell-based, human
Conditions: 10 nM saRNA, 72 hours, relative to control (Mock)
Description: Human liver cancer cell line Huh7 was cultured in DMEM medium (Gibco), containing 10% of calf serum (Sigma-Aldrich) and 1% of penicillin/streptomycin (Gibco). The cells were cultured at 5% CO2 and 37° C. According to the instructions provided by the manufacturer, RNAiMax (Invitrogen, Carlsbad, Calif.) was used to transfect small activating RNAs at a concentration of 10 nM (unless otherwise specified).
At the end of transfection, the media were discarded, and each well was washed with 150 μL of PBS once. After discarding the PBS, 50 μL of cell lysis buffer (Takara) was added to each well and incubated at room temperature for 5 min. 1 μL of the resulted cell lysis was taken from each well and analyzed by qPCR on an ABI 7500 fast real-time PCR system (Applied Biosystems) using a one-step TB Green™ PrimeScrip™ RT-PCR kit II (Takara, RR086A) Each transfection sample was repeatedly amplified in 3 replicate wells.
Reaction conditions were as follows: reverse transcription reaction (stage 1): 5 min at 42° C., 10 s at 95° C.; PCR reaction (stage 2): 5 s at 95° C., 20 s at 60° C., 45 cycles of amplification. HPRT1 and TBP were used as internal reference genes. PCR primers used for amplifying LHPP, HPRT1 and TBP genes are shown in Table 2, wherein LHPP was amplified using the LHPP F1/R1 primer pair.
To calculate the relative expression level (Erel) of LHPP (target gene) in an saRNA-transfected sample relative to control treatment (Mock), the Ct values of the target gene and the two internal reference genes were substituted into formula 1
Erel=2^(CtT^m^-CtT^s^)/((2^(CtR1^m^-CtR1^s^)*2^(CtR2^m^-CtR2^s^))^(1/2))
wherein CtTm was the Ct value of the target gene from the control (Mock) sample; CtTs was the Ct value of the target gene from the saRNA-treated sample; CtR1m was the Ct value of the internal reference gene 1 from the control (Mock) sample; CtR1s was the Ct value of the internal reference gene 1 from the saRNA-treated sample; CtR2m was the Ct value of the internal reference gene 2 from the control (Mock) sample; and CtR2s was the Ct value of the internal reference gene 2 from the saRNA-treated sample.
In order to obtain saRNAs capable of activating LHPP transcription, Huh7 cells were transfected with each of the aforementioned 290 saRNAs with a transfection concentration of 10 nM, and 72 hours later, according to the same method as described above, the cells were lysed and analyzed by one-step RT-qPCR to obtain the relative (compared with the control (Mock)) expression level of LHPP gene for each saRNA-treated sample. […] The observed maximum activation and maximum inhibition is 3.46 fold and 0.49 fold, respectively, saRNAs with activating activity are referred to as activating saRNAs, and the saRNAs with inhibiting activity are referred to as inhibiting saRNAs.

Row | Substance | Fold of changes in relative LHPP mRNA expression level | Fold of changes in relative LHPP mRNA expression level (log2)
1 | RAG7-171: saRNA duplex; sense CUUUGACCUUUCUUAGGGATT (SEQ ID NO: 80), antisense UCCCUAAGAAAGGUCAAAGTT (SEQ ID NO: 244) (sugars from the 5' end r19 d2, backbone not given here) | 1.27 fold | 0.34 log2
2 | RAG7-892: saRNA duplex; sense UGUUGGACCAGAAGUAAAGTT (SEQ ID NO: 2), antisense CUUUACUUCUGGUCCAACATT (SEQ ID NO: 166) (sugars from the 5' end r19 d2, backbone not given here) | 2.05 fold | 1.03 log2
3 | RAG7-151: saRNA duplex; sense UUGUUUUCUGCUUUUCCUGTT (SEQ ID NO: 100), antisense CAGGAAAAGCAGAAAACAATT (SEQ ID NO: 264) (sugars from the 5' end r19 d2, backbone not given here) | 1.22 fold | 0.28 log2
4 | RAG7-139: saRNA duplex; sense UUUCCUGCUCUUUGUCCGCTT (SEQ ID NO: 7), antisense GCGGACAAAGAGCAGGAAATT (SEQ ID NO: 171) (sugars from the 5' end r19 d2, backbone not given here) | 1.73 fold | 0.79 log2
5 | RAG7-92: saRNA duplex; sense AGGACACCGUUUCAGGGGCTT (SEQ ID NO: 155), antisense GCCCCUGAAACGGUGUCCUTT (SEQ ID NO: 319) (sugars from the 5' end r19 d2, backbone not given here) | 1.11 fold | 0.15 log2
6 | RAG7-897: saRNA duplex; sense AGCUAUGUUGGACCAGAAGTT (SEQ ID NO: 65), antisense CUUCUGGUCCAACAUAGCUTT (SEQ ID NO: 229) (sugars from the 5' end r19 d2, backbone not given here) | 1.31 fold | 0.39 log2
7 | RAG7-168: saRNA duplex; sense UGACCUUUCUUAGGGACUUTT (SEQ ID NO: 91), antisense AAGUCCCUAAGAAAGGUCATT (SEQ ID NO: 255) (sugars from the 5' end r19 d2, backbone not given here) | 1.24 fold | 0.31 log2
8 | RAG7-697: saRNA duplex; sense CCCAGGUCCUAUGCAUCCUTT (SEQ ID NO: 41), antisense AGGAUGCAUAGGACCUGGGTT (SEQ ID NO: 205) (sugars from the 5' end r19 d2, backbone not given here) | 1.43 fold | 0.51 log2
9 | RAG7-33: saRNA duplex; sense UUUGCACCCGGUCUUCUUGTT (SEQ ID NO: 119), antisense CAAGAAGACCGGGUGCAAATT (SEQ ID NO: 283) (sugars from the 5' end r19 d2, backbone not given here) | 1.18 fold | 0.24 log2
10 | RAG7-848: saRNA duplex; sense GAAAGGUUCCGAGGGGCCATT (SEQ ID NO: 87), antisense UGGCCCCUCGGAACCUUUCTT (SEQ ID NO: 251) (sugars from the 5' end r19 d2, backbone not given here) | 1.25 fold | 0.32 log2
11 | RAG7-89: saRNA duplex; sense ACACCGUUUCAGGGGCGAGTT (SEQ ID NO: 104), antisense CUCGCCCCUGAAACGGUGUTT (SEQ ID NO: 268) (sugars from the 5' end r19 d2, backbone not given here) | 1.21 fold | 0.28 log2
12 | RAG7-889: saRNA duplex; sense UGGACCAGAAGUAAAGUGUTT (SEQ ID NO: 115), antisense ACACUUUACUUCUGGUCCATT (SEQ ID NO: 279) (sugars from the 5' end r19 d2, backbone not given here) | 1.19 fold | 0.25 log2
13 | RAG7-128: saRNA duplex; sense UUGUCCGCUGAUCUCCUGGTT (SEQ ID NO: 111), antisense CCAGGAGAUCAGCGGACAATT (SEQ ID NO: 275) (sugars from the 5' end r19 d2, backbone not given here) | 1.20 fold | 0.26 log2
14 | RAG7-146: saRNA duplex; sense UUCUGCUUUUCCUGCUCUUTT (SEQ ID NO: 10), antisense AAGAGCAGGAAAAGCAGAATT (SEQ ID NO: 174) (sugars from the 5' end r19 d2, backbone not given here) | 1.69 fold | 0.76 log2
15 | RAG7-879: saRNA duplex; sense GUAAAGUGUUCUCGUUUCUTT (SEQ ID NO: 40), antisense AGAAACGAGAACACUUUACTT (SEQ ID NO: 204) (sugars from the 5' end r19 d2, backbone not given here) | 1.44 fold | 0.53 log2
16 | RAG7-886: saRNA duplex; sense ACCAGAAGUAAAGUGUUCUTT (SEQ ID NO: 25), antisense AGAACACUUUACUUCUGGUTT (SEQ ID NO: 189) (sugars from the 5' end r19 d2, backbone not given here) | 1.52 fold | 0.60 log2
17 | RAG7-122: saRNA duplex; sense GCUGAUCUCCUGGGAAGAATT (SEQ ID NO: 103), antisense UUCUUCCCAGGAGAUCAGCTT (SEQ ID NO: 267) (sugars from the 5' end r19 d2, backbone not given here) | 1.21 fold | 0.28 log2
18 | RAG7-137: saRNA duplex; sense UCCUGCUCUUUGUCCGCUGTT (SEQ ID NO: 151), antisense CAGCGGACAAAGAGCAGGATT (SEQ ID NO: 315) (sugars from the 5' end r19 d2, backbone not given here) | 1.12 fold | 0.16 log2
19 | RAG7-194: saRNA duplex; sense GGUGCCUUCUUGUCUCAAUTT (SEQ ID NO: 48), antisense AUUGAGACAAGAAGGCACCTT (SEQ ID NO: 212) (sugars from the 5' end r19 d2, backbone not given here) | 1.38 fold | 0.47 log2
20 | RAG7-134: saRNA duplex; sense UGCUCUUUGUCCGCUGAUCTT (SEQ ID NO: 75), antisense GAUCAGCGGACAAAGAGCATT (SEQ ID NO: 239) (sugars from the 5' end r19 d2, backbone not given here) | 1.28 fold | 0.36 log2
21 | RAG7-691: saRNA duplex; sense UCCUAUGCAUCCUCAUCUATT (SEQ ID NO: 30), antisense UAGAUGAGGAUGCAUAGGATT (SEQ ID NO: 194) (sugars from the 5' end r19 d2, backbone not given here) | 1.50 fold | 0.58 log2
22 | RAG7-914: saRNA duplex; sense CUUCUUUGAAAGCUCAAAGTT (SEQ ID NO: 143), antisense CUUUGAGCUUUCAAAGAAGTT (SEQ ID NO: 307) (sugars from the 5' end r19 d2, backbone not given here) | 1.14 fold | 0.19 log2
